# Reference: ChEMBL document CHEMBL1201862, “PubChem BioAssay data set” (2004)
#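 Where inhibition never reached the appropriate level, the endpoint shown equals the highest concentration tested. Otherwise, values were interpolated linearly from a five-concentration, 48-hour dose response in 96-well plates. Here, GI50 denotes the concentration required for 50% inhibition of growth.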 Activity calls are given as the source filed them. Rule as the data show it: active = GI50 up to about 1.1 µM and inactive = higher.
# What was measured:
# Assay in all cases: NCI tumour cell line growth inhibition, 48 h
# UACC-257 = test system: UACC-257
# MCF7 = test system: MCF7
# NCI-H460 = test system: NCI-H460
# KM12 = test system: KM12
# SNB-75 = test system: SNB-75
# HCT-15 = test system: HCT-15
# ACHN = test system: ACHN
# DU-145 = test system: DU-145
# SF-539 = test system: SF-539
# SW-620 = test system: SW-620
# SR = test system: SR
# UACC-62 = test system: UACC-62
# PC-3 = test system: PC-3
# HCT-116 = test system: HCT-116
# SK-OV-3 = test system: SK-OV-3
# U-251 = test system: U-251
# MOLT-4 = test system: MOLT-4
# OVCAR-5 = test system: OVCAR-5
# HT-29 = test system: HT-29
Compound,GI50 (UACC-257),GI50 (MCF7),GI50 (NCI-H460),GI50 (KM12),GI50 (SNB-75),GI50 (HCT-15),GI50 (ACHN),GI50 (DU-145),GI50 (SF-539),GI50 (SW-620),GI50 (SR),GI50 (UACC-62),GI50 (PC-3),GI50 (HCT-116),GI50 (SK-OV-3),GI50 (U-251),GI50 (MOLT-4),GI50 (OVCAR-5),GI50 (HT-29)
CCOC(=O)Nc1nn(C)/c(=N/Cc2ccccc2)s1,> 100 µM (inactive),> 100 µM (inactive),> 100 µM (inactive),> 100 µM (inactive),> 100 µM (inactive),> 100 µM,> 100 µM (inactive),> 100 µM (inactive),> 100 µM (inactive),> 100 µM (inactive),> 100 µM (inactive),> 100 µM (inactive),> 100 µM (inactive),> 100 µM (inactive),> 100 µM (inactive),> 100 µM (inactive),> 100 µM (inactive),> 100 µM (inactive),
C=Cc1ccccc1C1(O)C=CC(OC)(OC)C=C1,11.8 µM (inactive),2.94 µM (inactive),8.57 µM (inactive),0.617 µM (active),18.8 µM (inactive),3.53 µM,12.4 µM (inactive),20.4 µM (inactive),2.72 µM (inactive),3.8 µM (inactive),2.65 µM (inactive),4.51 µM (inactive),10.1 µM (inactive),3.4 µM (inactive),13.9 µM (inactive),3.66 µM (inactive),4 µM (inactive),6.93 µM (inactive),3.57 µM (inactive)
C=CC(C)(C)N[C@@H](C(=O)N1CCC[C@H]1c1nc(-c2nc(C(=O)OCC=C(C)C)c(C)o2)c(C)o1)C(C)C,20.5 µM (inactive),23.4 µM (inactive),24 µM (inactive),23 µM (inactive),33.8 µM (inactive),22 µM,29.4 µM (inactive),17.2 µM (inactive),16.3 µM (inactive),22.3 µM (inactive),18.1 µM (inactive),18 µM (inactive),25.5 µM (inactive),17.8 µM (inactive),27.1 µM (inactive),21.1 µM (inactive),15.2 µM (inactive),35.9 µM (inactive),19.1 µM (inactive)
CC(C)(C)n1c(=O)[nH]n(C2NN=Cc3cccc4cccc2c34)c1=O (stereo unspecified),54.3 µM (inactive),30.6 µM (inactive),30.1 µM (inactive),34 µM (inactive),21.9 µM (inactive),31.3 µM,,> 100 µM (inactive),16.9 µM (inactive),47.3 µM (inactive),11.4 µM (inactive),23.9 µM (inactive),31.8 µM (inactive),38.5 µM (inactive),50 µM (inactive),44.2 µM (inactive),20.8 µM (inactive),69 µM (inactive),20.4 µM (inactive)
O=S(=O)(O)c1ccc2c(/N=N/c3ccc(S(=O)(=O)O)c4ccccc34)c(O)c(S(=O)(=O)O)cc2c1,> 100 µM (inactive),> 100 µM (inactive),> 100 µM (inactive),> 100 µM (inactive),> 100 µM (inactive),> 100 µM,> 100 µM (inactive),> 100 µM (inactive),> 100 µM (inactive),> 100 µM (inactive),> 100 µM (inactive),> 100 µM (inactive),> 100 µM (inactive),> 100 µM (inactive),> 100 µM (inactive),> 100 µM (inactive),> 100 µM (inactive),> 100 µM (inactive),> 100 µM (inactive)
CC(=O)OC(C)c1cc2c(s1)C(=O)c1scc(C(C)OC(C)=O)c1C2=O (stereo unspecified),0.174 µM (active),0.251 µM (active),0.167 µM (active),0.195 µM (active),0.185 µM (active),0.195 µM,0.238 µM (active),0.178 µM (active),0.175 µM (active),0.298 µM (active),0.21 µM (active),0.212 µM (active),0.292 µM (active),0.285 µM (active),2.16 µM (inactive),0.25 µM (active),0.324 µM (active),0.57 µM (active),0.391 µM (active)
CN(C)CCNc1ccc(CO)c2oc3ccc(O)cc3c(=O)c12,12.8 µM (inactive),4.83 µM (inactive),4.24 µM (inactive),14.4 µM (inactive),12.6 µM (inactive),14.4 µM,7.45 µM (inactive),20.1 µM (inactive),12.3 µM (inactive),8.97 µM (inactive),1.14 µM (inactive),11.5 µM (inactive),12.7 µM (inactive),6.4 µM (inactive),14.4 µM (inactive),12.4 µM (inactive),2.47 µM (inactive),16.8 µM (inactive),11.3 µM (inactive)
